Experimental findings from US20050004024A1, “Methods of treating Pin1 associated disorders by covalent modification of active site residues” (PINTEX PHARMACEUTICALS, INC., priority 2003, published 2005) are described below.

The target of the experiment is Pin1 (Homo sapiens, UniProt Q13526). Kind of experiment: Time dependent inactivation of Pin1 (pre-incubation, then protease coupled Pin1 assay). It counts as biochemical. The note with it: 7.4 uM Pin1 incubated with 200 uM compound, 1% DMF, 35 mM hepes pH 7.8; aliquots diluted to 1 nM Pin1; FIG. 2. As for the experimental part:
Pin1 was incubated with Fred-A to determine the effect on peptidyl prolyl isomerase activity.
A solution containing 7.4 uM Pin1, 100 uM juglone 1% DMF, in 35 mM hepes pH 7.8 was incubated. At various time points, aliquots were removed and diluted into assay buffer containing 1 nM Pin1, 13.5 nM juglone, 0.1 mg/ml BSA, 0.2 mM DTT, and 35 mM Hepes pH 7.8. Pin1 activity was measured by using a protease coupled Pin1 assay.
Aliquots of the incubation mixtures were diluted 7,200 fold into assay buffer (0.1 mg/mL BSA, 0.2 mM DTT and 35 mM Hepes pH 7.8) to a final Pin1 concentration of 1 nM. 20 uL of a 0.4 mg/mL trypsin solution in 35 mM Hepes pH 7.8 was added to 1.2 mL Pin1 solution. The enzymatic reaction was initiated by the addition of 3 uL the substrate solution (15/mg/mL of Ac-Ala-Ala-(PO3)Ser-Pro-Arg-pNA dissolved in a solution of 0.5 M LiCl in trifluroethanol). The reaction progress was monitored at 390 nm for 8 minutes at 4° C.
A solution containing 7.4 uM Pin1, 200 uM juglone 1% DMF, in 35 mM hepes pH 7.8 was incubated. At various time points, aliquots were removed and diluted into assay buffer containing 1 nM Pin1, 27 nM juglone, 0.1 mg/ml BSA, 0.2 mM DTT, and 35 mM Hepes pH 7.8. Pin1 activity was measured as described above for juglone.

Pin1, sequence (Q13526 whole entry): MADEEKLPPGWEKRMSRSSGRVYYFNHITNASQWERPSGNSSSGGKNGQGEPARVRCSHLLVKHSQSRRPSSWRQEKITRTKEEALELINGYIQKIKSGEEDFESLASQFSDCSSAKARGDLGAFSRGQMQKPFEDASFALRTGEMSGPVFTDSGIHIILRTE

Fredericamycin A [Fred-A]: the “effect on peptidyl prolyl isomerase activity / covalent modification of Pin1” value is on record as “modified in a manner consistent with covalent modification of the active site”.
